Measurements as given in US20260125371A1, “METHOD FOR INHIBITING CLOSTRIDIOIDES DIFFICILE SPORE GERMINATION” (UNIVERSITY OF NOTRE DAME DU LAC, priority 2022, published 2026).
Values after ≈ are worked out from the molar mass of the structure shown.

Assays:
S. oralis ATCC 9811 = assay: MIC against S. oralis; assay type: cell-based; details: Streptococcus oralis, ATCC9811
[1] = test system: S. epidermidis ATCC 35547; assay: MIC against S. epidermidis; assay type: cell-based; details: Staphylococcus epidermidis, ATCC35547
B. cereus ATCC 13061 = assay: MIC against B. cereus; assay type: cell-based; details: Bacillus cereus, ATCC13061
C. difficile ATCC 43255 = assay: Time-kill assay; assay type: cell-based, Clostridioides difficile; details: 8× MIC
[2] = test system: B. licheniformis ATCC 12759; assay: MIC against B. licheniformis; assay type: cell-based; details: Bacillus licheniformis, ATCC12759

Structure (SMILES)	MIC (S. oralis ATCC 9811)	MIC [1]	MIC (B. cereus ATCC 13061)	reduction in bacterial growth (time-kill) (C. difficile ATCC 43255)	MIC [2]
CCc1c(Cl)c(O)c(Cl)c(O)c1C(=O)O[C@H]1[C@H](O)[C@H](OC)[C@H](OC/C2=C\C=C\C[C@H](O)/C(C)=C/[C@H](CC)[C@@H](O[C@@H]3OC(C)(C)[C@@H](OC(=O)C(C)C)[C@H](O)[C@@H]3O)/C(C)=C/C(C)=C/C[C@@H]([C@@H](C)O)OC2=O)O[C@@H]1C [FDX, fidaxomicin]	32 µg/mL (≈ 30.2 µM)				
Cc1ncc([N+](=O)[O-])n1CCO [MTZ, metronidazole]		> 128 µg/mL	> 256 µg/mL	4 log 10	> 256 µg/mL
